Laboratory results reported in paper PMC8540821, “Estimation of the Difference in Colistin Plasma Levels in Critically Ill Patients with Favorable or Unfavorable Clinical Outcomes” (Pharmaceutics, 2021).
Values after ≈ are worked out from the molar mass of the structure shown. Like-named read-outs stand apart in the source and are kept apart here. One block for each molecule: values may come before it. Where a SMILES comes first, the peptide text is derived from it. Bridges are numbered along the chain shown (N, C = ends). [ ]: non-standard residue; d: D form. The star is where a group is joined. X1 = CC[C@H](C)CCCCC(=O)*; Dab = NCC[C@H](N)C(=O)O

Legend:
[1] = system: K. pneumoniae; test: Susceptibility of clinical isolates (VITEK 2; MIC by broth dilution on microplate); format: cell-based, Klebsiella pneumoniae; conditions: for MIC: Klebsiella pneumoniae, broth dilution, read-out: highest MIC
Text: (§1) The bacterial isolates were recovered in MacConkey agar (Oxoid-Thermo Scientific®, Hampshire, UK) and sent to the Bacterial Molecular Genetics Laboratory in AMIES transport media (COPAN). […] The MICs of meropenem, amikacin, and colistin were established by the broth dilution method on a microplate. E. coli ATCC® 25922^TM and P. aeruginosa ATCC® 27853^TM strains was used as a susceptibility control (American Type Culture Collection). Finally, the carbapenemase genes blaIMP, blaOXA-48, blaVIM, blaGES, blaKPC, and blaNDM were assessed by multiplex PCR [45].

[2] = system: P. aeruginosa; test: as above; format: cell-based, Pseudomonas aeruginosa; conditions: for MIC: Pseudomonas aeruginosa, broth dilution
Text: as §1

[3] = system: P. putida; test: as above; format: cell-based, Pseudomonas putida
Text: as §1

[4] = system: E. cloacae; test: as above; format: cell-based, Enterobacter cloacae; conditions: for isolates I (intermediate), n (%) / isolates R (resistant), n (%) / isolates S (susceptible), n (%): n = 1, favorable outcome
Text: as §1

[5] = system: A. baumannii; test: as above; format: cell-based, Acinetobacter baumannii; conditions: for MIC: Acinetobacter baumannii, broth dilution, one isolate; for isolates I (intermediate), n (%) / isolates R (resistant), n (%) / isolates S (susceptible), n (%): n = 1, favorable outcome
Text: as §1

[6] = system: C. freundii; test: as above; format: cell-based; conditions: n = 1, unfavorable outcome
Text: as §1

[7] = system: E. coli; test: as above; format: cell-based, Escherichia coli; conditions: n = 1, favorable outcome
Text: as §1

[8] = clinical; conditions: human, in vivo, plasma Cmin, fourth day of treatment, HPLC-UV, median (IQR), read-out: Colistin levels, Median, IQR
Method: The doses were prescribed by the treating physician based on the institution’s drug-therapeutic guidelines (load of 1 mg/kg and maintenance of 3 mg/kg per day, divided into three doses). Measurement of the colistin concentration in plasma was performed on the fourth day of treatment, when it was assumed that the colistin concentrations would have reached a steady state. Colistin plasma concentrations (Cmin) were measured just before CMS administration. Cmin was chosen because it is more convenient from a practical point of view. Clinical outcomes were classified as (a) favorable (absence of fever (T < 38 °C); leukocytosis <12,000; not requiring vasopressors; in infections in which control cultures could be obtained, these cultures must be sterile within 7 days of treatment and without changes in the initial antimicrobial regimen within of the first 7 days of treatment. In addition, mortality at 30 days was measured as a secondary outcome; or (b) unfavorable (in the case of fever > 38 °C; leukocytosis > 12,000; requirement for a vasopressor or the presence of positive control cultures for the initial microorganism). The clinical outcomes were determined by consensus of at least two physicians on the study team. If all the criteria were met, the patient was assigned as having a favorable outcome; if one criterion was not met, the outcome was considered not favorable. […]

[9] = cited from earlier work
Text: Colistin has been clinically available since the 1950s, but it soon fell into disuse, mainly due to its nephrotoxic potential. Alongside its nephrotoxicity, which ranges between 0 and 58% in different studies, some evidence has found the incidence of peripheral neuropathy may be up to 50% with its use, as the main manifestation of neurotoxicity. The lack of other available options has increased the use of colistin in MDR infections, even with its safety profile. The pharmacokinetics of colistin are complex. Colistin is available as a sulfate and as sodium colis ...

[10] = system: multiresistant Gram-negative carbapenemase-producing bacteria; test: Clinical outcome at day 7 and 30-day mortality in patients treated with CMS; format: in vivo, human
Method: This prospective observational study was conducted from September 2017 and June 2020 at a university clinic in the Hospitalization and Critical Care services. The participation of patients in the study was according to the proposed inclusion criteria. Patients over 18 years old, hospitalized for infections caused by multiresistant Gram-negative carbapenemase-producing bacteria, diagnosed in hospital at the clinic of the University of La Sabana, who had been treated with CMS for at least 7 days at the institution, were included. […] Detailed demographic (age, sex, weight), clinical (site of infection, severity of disease, comorbidities (Charlson comorbidity index), CMS loading dose, CMS maintenance dose, duration of treatment, days of stay in the hospital, mortality, carbapenemase class, concomitant antibiotic therapy), laboratory (hemoglobin, red blood cell, neutrophil and platelet counts, serum creatinine and glomerular filtration rate (GFR)), and microbiological (bacterial isolation and characterization) data from each patient were recorded.
The doses were prescribed by the treating physician based on the institution’s drug-therapeutic guidelines (load of 1 mg/kg and maintenance of 3 mg/kg per day, divided into three doses). Measurement of the colistin concentration in plasma was performed on the fourth day of treatment, when it was assumed that the colistin concentrations would have reached a steady state. Colistin plasma concentrations (Cmin) were measured just before CMS administration. Cmin was chosen because it is more convenient from a practical point of view. Clinical outcomes were classified as (a) favorable (absence of fever (T < 38 °C); leukocytosis <12,000; not requiring vasopressors; in infections in which control cultures could be obtained, these cultures must be sterile within 7 days of treatment and without changes in the initial antimicrobial regimen within of the first 7 days of treatment. In addition, mortality at 30 days was measured as a secondary outcome; or (b) unfavorable (in the case of fever > 38 °C; leukocytosis > 12,000; requirement for a vasopressor or the presence of positive control cultures for the initial microorganism). The clinical outcomes were determined by consensus of at least two physicians on the study team. If all the criteria were met, the patient was assigned as having a favorable outcome; if one criterion was not met, the outcome was considered not favorable.

[11] = Acute kidney injury / renal failure (serum creatinine increase above 0.3 mg/dl in 48 h) by colistin level; format: in vivo, human; conditions: high colistin levels n = 2
Method: Regarding the incidence of renal failure, defined as an increase in serum creatinine above 0.3 mg/dl in 48 h, this occurred in 20.7% of patients with low colistin levels, in 50% of patients with normal colistin levels, and in 50% of patients with high colistin levels (Table 5).

[12] = isolates from patients with favorable outcome n = 10
[13] = isolates from patients with unfavorable outcome n = 14

MIC [1]: 32 µg/mL (≈ 83.4 µM) | MIC ([2]; found in 56.7% of isolates, 88.2% of which harbored KPC and VIM, read-out: MIC): > 1020 µg/mL | MIC ([3]; Pseudomonas putida, broth dilution, one isolate): > 1020 µg/mL | MIC ([4]; Enterobacter cloacae, broth dilution, read-out: highest MIC): 32 µg/mL (≈ 83.4 µM) | MIC [5]: 64 µg/mL (≈ 167 µM)
Molecule: C[C@@H](O)[C@H]1C(=O)N2C(C(=O)O)=C(S[C@@H]3CN[C@H](C(=O)N(C)C)C3)[C@H](C)[C@H]12 [meropenem]

Molecule: CC[C@H](C)CCCCC(=O)N[C@@H](CCN)C(=O)N[C@H](C(=O)N[C@@H](CCN)C(=O)N[C@H]1CCNC(=O)[C@H]([C@@H](C)O)NC(=O)[C@H](CCN)NC(=O)[C@H](CCN)NC(=O)[C@H](CC(C)C)NC(=O)[C@@H](CC(C)C)NC(=O)[C@H](CCN)NC1=O)[C@@H](C)O [colistin] (X1-[Dab]T[Dab][Dab][Dab][dL]L[Dab][Dab]T; lactam 4-C)
isolates I (intermediate), n (%) [6]: 1 (100) n (%) | isolates R (resistant), n (%) [6]: 0 (0) n (%) | isolates S (susceptible), n (%) [6]: 0 (0) n (%) | isolates I (intermediate), n (%) ([1]; favorable outcome n = 3): 1 (33.3) n (%) | isolates R (resistant), n (%) ([1]; favorable outcome n = 3): 2 (66.7) n (%) | isolates S (susceptible), n (%) ([1]; favorable outcome n = 3): 0 (0) n (%) | isolates I (intermediate), n (%) ([1]; unfavorable outcome n = 2): 0 (0) n (%) | isolates R (resistant), n (%) ([1]; unfavorable outcome n = 2): 0 (0) n (%) | isolates S (susceptible), n (%) ([1]; unfavorable outcome n = 2): 2 (100) n (%) | isolates I (intermediate), n (%) [2, 12]: 4 (40) n (%) | isolates R (resistant), n (%) [2, 12]: 4 (40) n (%) | isolates S (susceptible), n (%) [2, 12]: 2 (20) n (%) | isolates I (intermediate), n (%) [2, 13]: 6 (42.8) n (%) | isolates R (resistant), n (%) [2, 13]: 7 (50) n (%) | isolates S (susceptible), n (%) [2, 13]: 1 (7.14) n (%) | isolates I (intermediate), n (%) ([3]; favorable outcome n = 1): 1 (100) n (%) | isolates R (resistant), n (%) ([3]; favorable outcome n = 1): 0 (0) n (%) | isolates S (susceptible), n (%) ([3]; favorable outcome n = 1): 0 (0) n (%) | isolates I (intermediate), n (%) ([3]; unfavorable outcome n = 1): 0 (0) n (%) | isolates R (resistant), n (%) ([3]; unfavorable outcome n = 1): 0 (0) n (%) | isolates S (susceptible), n (%) ([3]; unfavorable outcome n = 1): 1 (100) n (%) | isolates I (intermediate), n (%) [4]: 0 (0) n (%) | isolates R (resistant), n (%) [4]: 1 (100) n (%) | isolates S (susceptible), n (%) [4]: 0 (0) n (%) | isolates I (intermediate), n (%) [7]: 1 (100) n (%) | isolates R (resistant), n (%) [7]: 0 (0) n (%) | isolates S (susceptible), n (%) [7]: 0 (0) n (%) | level at 96 h ([8]; favorable clinical outcome n = 34, p = 0.167 vs unfavorable): 160 ng/mL | level at 96 h ([8]; unfavorable clinical outcome n = 23): 540 ng/mL | isolates I (intermediate), n (%) [5]: 1 (100) n (%) | isolates R (resistant), n (%) [5]: 0 (0) n (%) | isolates S (susceptible), n (%) [5]: 0 (0) n (%) | calculated volume of distribution [9]: 0.34 L/kg | half-life [9]: 4.18 h | 30 days mortality, n, % ([10]; high colistin levels n = 2 (>4 µg/mL)): 0 (0%) n, % | 30 days mortality, n, % ([10]; normal colistin levels n = 2 (2 to 4 µg/mL)): 0 (0%) n, % | Favorable clinical outcomes ([10]; patients with colistin levels within the normal range): 50% | Favorable clinical outcomes ([10]; patients with levels above the limit of normality): 50% | Favorable clinical outcomes ([10]; patients with low colistin levels): 60% | Acute kidney injury, n, % [11]: 1 (50%) n, %

Molecule: CN(C)c1cc(NC(=O)CNC(C)(C)C)c(O)c2c1C[C@H]1C[C@H]3[C@H](N(C)C)C(O)=C(C(N)=O)C(=O)[C@@]3(O)C(O)=C1C2=O [Glycylcyclines, tigecycline]
isolates I (intermediate), n (%) [6]: 1 (100) n (%) | isolates R (resistant), n (%) [6]: 0 (0) n (%) | isolates S (susceptible), n (%) [6]: 0 (0) n (%) | isolates I (intermediate), n (%) ([1]; favorable outcome n = 3): 0 (0) n (%) | isolates R (resistant), n (%) ([1]; favorable outcome n = 3): 0 (0) n (%) | isolates S (susceptible), n (%) ([1]; favorable outcome n = 3): 1 (33.3) n (%) | isolates I (intermediate), n (%) ([1]; unfavorable outcome n = 2): 0 (0) n (%) | isolates R (resistant), n (%) ([1]; unfavorable outcome n = 2): 0 (0) n (%) | isolates S (susceptible), n (%) ([1]; unfavorable outcome n = 2): 2 (100) n (%) | isolates I (intermediate), n (%) [2, 12]: 0 (0) n (%) | isolates R (resistant), n (%) [2, 12]: 9 (90) n (%) | isolates S (susceptible), n (%) [2, 12]: 0 (0) n (%) | isolates I (intermediate), n (%) [2, 13]: 0 (0) n (%) | isolates R (resistant), n (%) [2, 13]: 11 (78.6) n (%) | isolates S (susceptible), n (%) [2, 13]: 0 (0) n (%) | isolates I (intermediate), n (%) ([3]; favorable outcome n = 1): 1 (100) n (%) | isolates R (resistant), n (%) ([3]; favorable outcome n = 1): 0 (0) n (%) | isolates S (susceptible), n (%) ([3]; favorable outcome n = 1): 0 (0) n (%) | isolates I (intermediate), n (%) ([3]; unfavorable outcome n = 1): 0 (0) n (%) | isolates R (resistant), n (%) ([3]; unfavorable outcome n = 1): 0 (0) n (%) | isolates S (susceptible), n (%) ([3]; unfavorable outcome n = 1): 1 (100) n (%) | isolates I (intermediate), n (%) [4]: 0 (0) n (%) | isolates R (resistant), n (%) [4]: 0 (0) n (%) | isolates S (susceptible), n (%) [4]: 1 (100) n (%) | isolates I (intermediate), n (%) [7]: 0 (0) n (%) | isolates R (resistant), n (%) [7]: 0 (0) n (%) | isolates S (susceptible), n (%) [7]: 1 (100) n (%) | isolates I (intermediate), n (%) [5]: 0 (0) n (%) | isolates R (resistant), n (%) [5]: 0 (0) n (%) | isolates S (susceptible), n (%) [5]: 1 (100) n (%)

Molecule: colistimethate sodium [CMS]
half-life ([9]; in vivo): 2.07 h

MIC [1]: 64 µg/mL (≈ 109 µM) | MIC ([2]; established in 23.3% of isolates, read-out: highest MIC): 128 µg/mL (≈ 219 µM) | MIC [5]: 64 µg/mL (≈ 109 µM)
Molecule: NCC[C@H](O)C(=O)N[C@@H]1C[C@H](N)[C@@H](O[C@H]2O[C@H](CN)[C@@H](O)[C@H](O)[C@H]2O)[C@H](O)[C@H]1O[C@H]1O[C@H](CO)[C@@H](O)[C@H](N)[C@H]1O [amikacin]
